{"source": "ChEMBL document CHEMBL1201862", "about": "“PubChem BioAssay data set” (2004)", "test_in_all_cases": "DTP human tumour cell line panel, 48 h", "key": {"[1]": {"test_system": "HCT-116"}, "[2]": {"test_system": "SF-539"}, "[3]": {"test_system": "ACHN"}, "[4]": {"test_system": "CCRF-CEM"}, "[5]": {"test_system": "Hs-578T"}, "[6]": {"test_system": "SW-620"}, "[7]": {"test_system": "NCI-H23"}, "[8]": {"test_system": "NCI-H226"}, "[9]": {"test_system": "MDA-N"}, "[10]": {"test_system": "SF-268"}, "[11]": {"test_system": "HT-29"}, "[12]": {"test_system": "PC-3"}, "[13]": {"test_system": "RXF 393"}, "[14]": {"test_system": "RPMI-8226"}, "[15]": {"test_system": "DU-145"}, "[16]": {"test_system": "MCF7"}, "[17]": {"test_system": "U-251"}, "[18]": {"test_system": "OVCAR-5"}, "[19]": {"test_system": "M14"}, "[20]": {"test_system": "TK-10"}}, "note": "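Following 48 hours of exposure in 96-well plates, responses at five concentrations were used to interpolate endpoints linearly. At the GI50, growth is halved.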 The source made the active and inactive calls. No stated cut-off is given here; in the data, active = GI50 up to about 1.1 µM and inactive = higher."}
{"smiles": "CC[C@@]1(O)C(=O)OCc2c1cc1n(c2=O)Cc2c-1nc1ccccc1c2/C=N\\NC(=O)C(N)CO", "note": "(stereo not given in full)", "values": [{"measurement": "GI50", "setting": "[1]", "result": "1.02 µM (active)"}, {"measurement": "GI50", "setting": "[2]", "result": "0.138 µM (active)"}, {"measurement": "GI50", "setting": "[3]", "result": "0.191 µM (active)"}, {"measurement": "GI50", "setting": "[4]", "result": "0.0474 µM (active)"}, {"measurement": "GI50", "setting": "[5]", "result": "> 67.9 µM (inactive)"}, {"measurement": "GI50", "setting": "[6]", "result": "1.62 µM (inactive)"}, {"measurement": "GI50", "setting": "[7]", "result": "0.371 µM (active)"}, {"measurement": "GI50", "setting": "[8]", "result": "0.627 µM (active)"}, {"measurement": "GI50", "setting": "[9]", "result": "6.52 µM (inactive)"}, {"measurement": "GI50", "setting": "[10]", "result": "0.0643 µM (active)"}, {"measurement": "GI50", "setting": "[11]", "result": "2.86 µM (inactive)"}, {"measurement": "GI50", "setting": "[12]", "result": "2.2 µM (inactive)"}, {"measurement": "GI50", "setting": "[13]", "result": "1.14 µM (inactive)"}, {"measurement": "GI50", "setting": "[14]", "result": "1.13 µM (inactive)"}, {"measurement": "GI50", "setting": "[15]", "result": "0.379 µM (active)"}, {"measurement": "GI50", "setting": "[16]", "result": "0.27 µM (active)"}, {"measurement": "GI50", "setting": "[17]", "result": "0.232 µM (active)"}, {"measurement": "GI50", "setting": "[18]", "result": "13.4 µM (inactive)"}, {"measurement": "GI50", "setting": "[19]", "result": "0.492 µM (active)"}, {"measurement": "GI50", "setting": "[20]", "result": "> 60.7 µM (inactive)"}]}
{"smiles": "N#CC1(C#N)NC(c2ccccc2)C(C#N)(C#N)NC1c1ccccc1", "note": "(stereo not given)", "values": [{"measurement": "GI50", "setting": "[1]", "result": "> 100 µM (inactive)"}, {"measurement": "GI50", "setting": "[2]", "result": "> 100 µM (inactive)"}, {"measurement": "GI50", "setting": "[3]", "result": "> 100 µM (inactive)"}, {"measurement": "GI50", "setting": "[4]", "result": "> 100 µM (inactive)"}, {"measurement": "GI50", "setting": "[5]", "result": "> 100 µM (inactive)"}, {"measurement": "GI50", "setting": "[6]", "result": "> 100 µM (inactive)"}, {"measurement": "GI50", "setting": "[7]", "result": "> 100 µM (inactive)"}, {"measurement": "GI50", "setting": "[8]", "result": "> 100 µM (inactive)"}, {"measurement": "GI50", "setting": "[9]", "result": "> 100 µM (inactive)"}, {"measurement": "GI50", "setting": "[10]", "result": "> 100 µM (inactive)"}, {"measurement": "GI50", "setting": "[11]", "result": "> 100 µM (inactive)"}, {"measurement": "GI50", "setting": "[12]", "result": "> 100 µM (inactive)"}, {"measurement": "GI50", "setting": "[13]", "result": "> 100 µM (inactive)"}, {"measurement": "GI50", "setting": "[14]", "result": "> 100 µM (inactive)"}, {"measurement": "GI50", "setting": "[15]", "result": "> 100 µM (inactive)"}, {"measurement": "GI50", "setting": "[16]", "result": "> 100 µM (inactive)"}, {"measurement": "GI50", "setting": "[17]", "result": "> 100 µM (inactive)"}, {"measurement": "GI50", "setting": "[18]", "result": "> 100 µM (inactive)"}, {"measurement": "GI50", "setting": "[19]", "result": "> 100 µM (inactive)"}, {"measurement": "GI50", "setting": "[20]", "result": "> 100 µM (inactive)"}]}
{"smiles": "O=C1C=CC2(C=C1)O[C@H](Cc1ccccc1)[C@@H](Cc1ccccc1)O2", "values": [{"measurement": "GI50", "setting": "[1]", "result": "0.1 µM (active)"}, {"measurement": "GI50", "setting": "[2]", "result": "0.37 µM (active)"}, {"measurement": "GI50", "setting": "[3]", "result": "0.279 µM (active)"}, {"measurement": "GI50", "setting": "[4]", "result": "0.102 µM (active)"}, {"measurement": "GI50", "setting": "[5]", "result": "0.716 µM (active)"}, {"measurement": "GI50", "setting": "[6]", "result": "0.137 µM (active)"}, {"measurement": "GI50", "setting": "[7]", "result": "1.16 µM (inactive)"}, {"measurement": "GI50", "setting": "[8]", "result": "0.255 µM (active)"}, {"measurement": "GI50", "setting": "[9]", "result": "0.246 µM (active)"}, {"measurement": "GI50", "setting": "[10]", "result": "0.755 µM (active)"}, {"measurement": "GI50", "setting": "[11]", "result": "0.964 µM (active)"}, {"measurement": "GI50", "setting": "[12]", "result": "0.873 µM (active)"}, {"measurement": "GI50", "setting": "[13]", "result": "0.26 µM (active)"}, {"measurement": "GI50", "setting": "[14]", "result": "0.177 µM (active)"}, {"measurement": "GI50", "setting": "[15]", "result": "1.26 µM (inactive)"}, {"measurement": "GI50", "setting": "[16]", "result": "0.256 µM (active)"}, {"measurement": "GI50", "setting": "[17]", "result": "1.05 µM (active)"}, {"measurement": "GI50", "setting": "[18]", "result": "0.281 µM (active)"}, {"measurement": "GI50", "setting": "[19]", "result": "0.653 µM (active)"}, {"measurement": "GI50", "setting": "[20]", "result": "0.506 µM (active)"}]}
{"smiles": "NC(Cc1ncccn1)C(=O)O", "note": "(stereo not given)", "values": [{"measurement": "GI50", "setting": "[1]", "result": "> 100 µM (inactive)"}, {"measurement": "GI50", "setting": "[2]", "result": "> 100 µM (inactive)"}, {"measurement": "GI50", "setting": "[3]", "result": "> 100 µM (inactive)"}, {"measurement": "GI50", "setting": "[4]", "result": "> 100 µM (inactive)"}, {"measurement": "GI50", "setting": "[5]", "result": "> 100 µM (inactive)"}, {"measurement": "GI50", "setting": "[6]", "result": "> 100 µM (inactive)"}, {"measurement": "GI50", "setting": "[7]", "result": "> 100 µM (inactive)"}, {"measurement": "GI50", "setting": "[8]", "result": "> 100 µM (inactive)"}, {"measurement": "GI50", "setting": "[9]", "result": "> 100 µM (inactive)"}, {"measurement": "GI50", "setting": "[10]", "result": "> 100 µM (inactive)"}, {"measurement": "GI50", "setting": "[11]", "result": "> 100 µM (inactive)"}, {"measurement": "GI50", "setting": "[12]", "result": "> 100 µM (inactive)"}, {"measurement": "GI50", "setting": "[13]", "result": "> 100 µM (inactive)"}, {"measurement": "GI50", "setting": "[14]", "result": "> 100 µM (inactive)"}, {"measurement": "GI50", "setting": "[15]", "result": "> 100 µM (inactive)"}, {"measurement": "GI50", "setting": "[16]", "result": "> 100 µM (inactive)"}, {"measurement": "GI50", "setting": "[17]", "result": "> 100 µM (inactive)"}, {"measurement": "GI50", "setting": "[18]", "result": "> 100 µM (inactive)"}, {"measurement": "GI50", "setting": "[19]", "result": "> 100 µM (inactive)"}, {"measurement": "GI50", "setting": "[20]", "result": "> 100 µM (inactive)"}]}
{"smiles": "CC(/C=C/C=C/C=C/C=C/C=C/C(=O)C1=C(O)C(CCC(=O)O)N(C)C1=O)=C\\C(C)C(OC1CC(O)C(O)C(C)O1)C(C)C", "note": "(stereo not given)", "values": [{"measurement": "GI50", "setting": "[1]", "result": "2.82 µM (inactive)"}, {"measurement": "GI50", "setting": "[2]", "result": "2.56 µM (inactive)"}, {"measurement": "GI50", "setting": "[3]", "result": "3.13 µM (inactive)"}, {"measurement": "GI50", "setting": "[4]", "result": "3.26 µM (inactive)"}, {"measurement": "GI50", "setting": "[5]", "result": "5.85 µM (inactive)"}, {"measurement": "GI50", "setting": "[6]", "result": "4.13 µM (inactive)"}, {"measurement": "GI50", "setting": "[7]", "result": "2.62 µM (inactive)"}, {"measurement": "GI50", "setting": "[8]", "result": "3.48 µM (inactive)"}, {"measurement": "GI50", "setting": "[9]", "result": "2.97 µM (inactive)"}, {"measurement": "GI50", "setting": "[10]", "result": "2.84 µM (inactive)"}, {"measurement": "GI50", "setting": "[11]", "result": "3.02 µM (inactive)"}, {"measurement": "GI50", "setting": "[12]", "result": "3.32 µM (inactive)"}, {"measurement": "GI50", "setting": "[13]", "result": "3.07 µM (inactive)"}, {"measurement": "GI50", "setting": "[14]", "result": "3.13 µM (inactive)"}, {"measurement": "GI50", "setting": "[15]", "result": "3.42 µM (inactive)"}, {"measurement": "GI50", "setting": "[16]", "result": "4.35 µM (inactive)"}, {"measurement": "GI50", "setting": "[17]", "result": "3.6 µM (inactive)"}, {"measurement": "GI50", "setting": "[18]", "result": "2.27 µM (inactive)"}, {"measurement": "GI50", "setting": "[19]", "result": "3.26 µM (inactive)"}, {"measurement": "GI50", "setting": "[20]", "result": "2.49 µM (inactive)"}]}
